Experimental data published in the NIST ThermoML archive (doi:10.1021/acs.jced.8b00387).

Test: xn = mol fraction of the nth substance listed
Conditions: for viscosity / mass density / speed of sound: 102 kPa, Liquid; for viscosity: Concentric cylinders viscometry; for mass density: Vibrating tube method; for speed of sound: Frequency=3 MHz, Single path-length method; for surface tension liquid-gas: 294 K, Pendant drop shape

CC(CC(C)(C)C)CC(C)(C)C [2,2,4,6,6-pentamethylheptane] + CCCCCCc1ccccc1
Conditions | mass density [kg/m3] | speed of sound [m/s] | viscosity [mPa·s]
253.15 K, x2 = 0.1 | 784.1 | – | 3
253.15 K, x2 = 0.2065 | 795 | – | 3.03
253.15 K, x2 = 0.3009 | 804.9 | – | 3.08
253.15 K, x2 = 0.3968 | 815.2 | – | 3.19
253.15 K, x2 = 0.5001 | 826.8 | – | –
253.15 K, x2 = 0.5004 | – | – | 3.31
253.15 K, x2 = 0.6 | 838.5 | – | 3.47
253.15 K, x2 = 0.6998 | 850.5 | – | 3.7
253.15 K, x2 = 0.7997 | 863.5 | – | 3.93
253.15 K, x2 = 0.8999 | 875.7 | – | 4.2
288.15 K, x2 = 0.1 | 758.47 | 1238.9 | –
288.15 K, x2 = 0.2065 | 769.17 | 1255.2 | –
288.15 K, x2 = 0.3009 | 778.97 | 1270.3 | –
288.15 K, x2 = 0.3968 | 789.42 | 1286.2 | –
288.15 K, x2 = 0.5001 | 800.56 | – | –
288.15 K, x2 = 0.5004 | – | 1302.9 | –
288.15 K, x2 = 0.6 | 812.08 | 1320.1 | –
288.15 K, x2 = 0.6998 | 824 | 1338 | –
288.15 K, x2 = 0.7997 | 836.31 | 1356.4 | –
288.15 K, x2 = 0.8999 | 849.13 | 1375.5 | –
293.15 K, x2 = 0.1 | 754.83 | 1219 | 1.31
293.15 K, x2 = 0.2065 | 765.51 | 1235.7 | 1.31
293.15 K, x2 = 0.3009 | 775.3 | 1250.6 | 1.31
293.15 K, x2 = 0.3968 | 785.5 | 1266 | 1.35
293.15 K, x2 = 0.5001 | 796.87 | – | –
293.15 K, x2 = 0.5004 | – | 1283.3 | 1.36
293.15 K, x2 = 0.6 | 808.37 | 1300.6 | 1.4
293.15 K, x2 = 0.6998 | 820.27 | 1318.6 | 1.46
293.15 K, x2 = 0.7997 | 832.57 | 1337.1 | 1.51
293.15 K, x2 = 0.8999 | 845.36 | 1356.2 | 1.56
303.15 K, x2 = 0.1 | 747.53 | 1180 | 1.12
303.15 K, x2 = 0.2065 | 758.19 | 1197.2 | 1.13
303.15 K, x2 = 0.3009 | 767.96 | 1211.8 | 1.14
303.15 K, x2 = 0.3968 | 778.14 | 1227.4 | 1.15
303.15 K, x2 = 0.5001 | 789.48 | – | –
303.15 K, x2 = 0.5004 | – | 1244.8 | 1.17
303.15 K, x2 = 0.6 | 800.94 | 1262.2 | 1.2
303.15 K, x2 = 0.6998 | 812.8 | 1280.3 | 1.25
303.15 K, x2 = 0.7997 | 825.06 | 1299 | 1.29
303.15 K, x2 = 0.8999 | 837.82 | 1318.2 | 1.33
313.15 K, x2 = 0.1 | 740.2 | 1141.9 | 0.957
313.15 K, x2 = 0.2065 | 750.84 | 1159.3 | 0.962
313.15 K, x2 = 0.3009 | 760.6 | 1174 | 0.967
313.15 K, x2 = 0.3968 | 770.75 | 1189.7 | 0.979
313.15 K, x2 = 0.5001 | 782.06 | – | –
313.15 K, x2 = 0.5004 | – | 1207.2 | 1
313.15 K, x2 = 0.6 | 793.5 | 1224.7 | 1.02
313.15 K, x2 = 0.6998 | 805.33 | 1243 | 1.06
313.15 K, x2 = 0.7997 | 817.55 | 1261.7 | 1.09
313.15 K, x2 = 0.8999 | 830.26 | 1281 | 1.12
323.15 K, x2 = 0.1 | 732.84 | 1104.7 | 0.848
323.15 K, x2 = 0.2065 | 743.45 | 1122.2 | 0.853
323.15 K, x2 = 0.3009 | 753.21 | 1136.9 | 0.861
323.15 K, x2 = 0.3968 | 763.34 | 1152.8 | 0.873
323.15 K, x2 = 0.5001 | 774.63 | – | –
323.15 K, x2 = 0.5004 | – | 1170.4 | 0.889
323.15 K, x2 = 0.6 | 786.03 | 1188.1 | 0.911
323.15 K, x2 = 0.6998 | 797.82 | 1206.4 | 0.943
323.15 K, x2 = 0.7997 | 810.01 | 1225.2 | 0.964
323.15 K, x2 = 0.8999 | 822.68 | 1244.6 | 0.992
333.15 K, x2 = 0.1 | 725.44 | 1068.5 | 0.749
333.15 K, x2 = 0.2065 | 736.04 | 1085.8 | 0.753
333.15 K, x2 = 0.3009 | 745.77 | 1101 | 0.758
333.15 K, x2 = 0.3968 | 755.89 | 1117 | 0.768
333.15 K, x2 = 0.5001 | 767.15 | – | –
333.15 K, x2 = 0.5004 | – | 1134.6 | 0.783
333.15 K, x2 = 0.6 | 778.54 | 1152.5 | 0.803
333.15 K, x2 = 0.6998 | 790.29 | 1170.8 | 0.828
333.15 K, x2 = 0.7997 | 802.45 | 1189.6 | 0.844
333.15 K, x2 = 0.8999 | 815.08 | 1209.1 | 0.87

Conditions | surface tension liquid-gas [mN/m]
x2 = 0.1 | 21.9
x2 = 0.2065 | 22.5
x2 = 0.3009 | 23.1
x2 = 0.3968 | 23.5
x2 = 0.5001 | 24.1
x2 = 0.6 | 24.7
x2 = 0.6998 | 25.5
x2 = 0.7997 | 26.5
x2 = 0.8999 | 27.7
